According to ChEMBL document CHEMBL1201862, “PubChem BioAssay data set” (2004):
The source made the active and inactive calls.

What was measured:
[1] = biological target: Glucose-6-phosphate 1-dehydrogenase (Homo sapiens, UniProt P11413); assay: human G6PD enzyme inhibitors, dose response, selectivity assay for P. falciparum G6PD inhibitor project, biochemical, fluorescence (AID 504792); format: functional
[2] = P. falciparum Dd2 growth inhibitors, dose response, SYBR Green, cherry-picked samples (AID 1159567); format: functional, cell-based
[3] = inhibitors of Vif binding to APOBEC3G peptide, primary screen, biochemical, TR-FRET, GST-Vif 1-94, biotin-A3G peptide, dose response retest (AID 1117319); format: functional;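 note: TR-FRET signal of purified GST-Vif binding a biotinylated A3G peptide; inhibitors lower the FRET signal by blocking Vif and A3G binding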
[4] = THP-1 cell cytotoxicity, dose response, cytotoxicity control for Vif-APOBEC3G degradation inhibitor project, THP-1 cells (AID 1117359); format: functional; conditions: Human immunodeficiency virus 1, THP-1
[5] = biological target: T1, Heat shock factor protein 1 (Mus musculus, UniProt P38532); assay: inhibition of MG132-induced HSE-luciferase signal, confirmation, cell-based, NIH3T3, luminescence, dose retest (AID 2382); format: functional;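 note: NIH3T3 fibroblasts with HSF1-driven luciferase reporter stressed by proteasome inhibitor MG132; luminescence from HSF1-driven luciferase expression after 8 hours of MG132 stress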
T1 sequence (P38532 whole entry): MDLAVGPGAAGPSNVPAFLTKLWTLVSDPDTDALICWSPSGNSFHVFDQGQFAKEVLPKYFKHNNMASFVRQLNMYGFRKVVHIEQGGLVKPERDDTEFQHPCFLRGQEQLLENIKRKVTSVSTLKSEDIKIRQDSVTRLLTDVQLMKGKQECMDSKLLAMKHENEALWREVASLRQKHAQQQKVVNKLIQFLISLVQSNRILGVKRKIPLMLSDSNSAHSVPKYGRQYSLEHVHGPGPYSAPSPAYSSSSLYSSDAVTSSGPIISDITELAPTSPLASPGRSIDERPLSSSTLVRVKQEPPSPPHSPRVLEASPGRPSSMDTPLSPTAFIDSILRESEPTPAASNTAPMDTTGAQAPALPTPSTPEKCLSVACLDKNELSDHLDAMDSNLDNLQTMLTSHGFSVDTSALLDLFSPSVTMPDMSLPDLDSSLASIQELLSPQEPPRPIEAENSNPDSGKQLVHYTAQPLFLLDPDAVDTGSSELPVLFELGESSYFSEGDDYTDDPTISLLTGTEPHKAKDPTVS

Large T antigen = Large T antigen (Simian virus 40, UniProt P03070); format: functional, Betapolyomavirus macacae;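 note: Confirmatory-stage PubChem screen for compounds that inhibit SV40 T antigen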
[6] = biological target: T2, Short transient receptor potential channel 4 (Mus musculus, UniProt Q9QUQ5); assay: mouse TRPC4 channel inhibitors, dose response, cell-based, HEK293 TRPC4/mu-opioid, Fluo-4 calcium (AID 434942); format: functional;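 note: potency of inhibitors blocking the TRPC4 calcium response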
T2 sequence (Q9QUQ5 whole entry): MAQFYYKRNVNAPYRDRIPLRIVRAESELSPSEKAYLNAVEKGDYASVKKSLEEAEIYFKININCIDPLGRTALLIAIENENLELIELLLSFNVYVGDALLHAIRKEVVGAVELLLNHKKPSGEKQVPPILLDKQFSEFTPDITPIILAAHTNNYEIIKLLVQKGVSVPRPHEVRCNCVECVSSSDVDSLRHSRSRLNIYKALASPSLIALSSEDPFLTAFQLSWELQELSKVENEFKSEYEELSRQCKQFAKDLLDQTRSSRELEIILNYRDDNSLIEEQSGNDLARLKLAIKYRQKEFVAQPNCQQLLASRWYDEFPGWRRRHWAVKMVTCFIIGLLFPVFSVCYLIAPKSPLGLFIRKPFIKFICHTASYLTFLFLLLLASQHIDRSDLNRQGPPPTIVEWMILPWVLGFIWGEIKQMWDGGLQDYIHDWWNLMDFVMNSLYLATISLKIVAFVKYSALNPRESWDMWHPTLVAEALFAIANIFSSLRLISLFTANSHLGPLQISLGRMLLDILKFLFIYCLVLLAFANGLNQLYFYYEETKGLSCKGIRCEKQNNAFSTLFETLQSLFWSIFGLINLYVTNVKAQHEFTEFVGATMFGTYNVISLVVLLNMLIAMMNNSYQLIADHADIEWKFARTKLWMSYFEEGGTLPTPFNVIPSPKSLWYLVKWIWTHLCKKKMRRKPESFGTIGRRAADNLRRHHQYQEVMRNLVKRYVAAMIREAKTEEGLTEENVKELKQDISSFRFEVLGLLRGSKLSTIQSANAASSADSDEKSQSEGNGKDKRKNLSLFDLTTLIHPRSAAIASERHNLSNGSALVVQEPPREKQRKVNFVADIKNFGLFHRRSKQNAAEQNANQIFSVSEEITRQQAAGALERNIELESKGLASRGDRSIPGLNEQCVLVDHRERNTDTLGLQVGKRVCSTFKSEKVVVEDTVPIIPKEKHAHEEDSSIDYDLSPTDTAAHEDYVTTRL

[7] = biological target: T3, Acyl-homoserine lactone acylase PvdQ (Pseudomonas aeruginosa (strain LESB58), UniProt Q9I194); assay: P. aeruginosa PvdQ acylase inhibitors, dose response, biochemical, fluorescence, plate reader and imaging, cherry-picks (AID 493231)
T3 sequence (Q9I194 whole entry): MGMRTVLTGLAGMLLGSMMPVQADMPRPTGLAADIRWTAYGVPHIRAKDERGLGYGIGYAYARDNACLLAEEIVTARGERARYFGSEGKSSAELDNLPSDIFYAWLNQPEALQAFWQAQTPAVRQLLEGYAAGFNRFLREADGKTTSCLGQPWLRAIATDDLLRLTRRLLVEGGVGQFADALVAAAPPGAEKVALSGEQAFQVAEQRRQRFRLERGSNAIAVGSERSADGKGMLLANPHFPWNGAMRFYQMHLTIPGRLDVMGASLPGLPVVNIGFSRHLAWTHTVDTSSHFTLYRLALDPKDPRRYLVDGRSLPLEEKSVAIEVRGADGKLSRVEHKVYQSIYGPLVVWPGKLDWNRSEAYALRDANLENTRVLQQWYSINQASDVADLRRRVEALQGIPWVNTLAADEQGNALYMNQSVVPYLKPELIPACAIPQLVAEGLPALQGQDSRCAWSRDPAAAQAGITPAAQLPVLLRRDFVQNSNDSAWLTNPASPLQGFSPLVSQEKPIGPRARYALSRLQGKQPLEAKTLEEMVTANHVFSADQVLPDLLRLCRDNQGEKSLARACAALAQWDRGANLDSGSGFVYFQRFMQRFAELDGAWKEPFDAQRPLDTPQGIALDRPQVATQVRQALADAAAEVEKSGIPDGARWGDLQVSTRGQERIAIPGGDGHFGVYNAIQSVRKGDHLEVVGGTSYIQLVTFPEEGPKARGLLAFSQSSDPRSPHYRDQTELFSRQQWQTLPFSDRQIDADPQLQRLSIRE

[8] = cytotoxicity toward NIH3T3 fibroblasts, dose response, counter-screen, cell-based, ATP luminescence, mouse fibroblasts (AID 2010); format: functional;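 note: cells exposed to compound for about 90 hours before reading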
[9] = microbe, parasite or virus in culture; format: functional; conditions: Mycobacterium tuberculosis
[10] = Luminescence Cell-Based Dose Retest to Confirm Inhibitors of Cancer Stem Cells. [Related pubchem assays (depositor defined):AID2717, AID2721]; format: functional; conditions: Homo sapiens
[11] = inhibitors of intracellular T. cruzi replication, confirmation, NIH3T3 host cells, beta-gal luminescence (AID 2044); format: functional, cell-based;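 note: intracellular parasites grown in NIH/3T3 mouse fibroblasts as host cells; luminescent beta-galactosidase reporter signal from transgenic T. cruzi replicating inside host cells; inhibitors lower the luminescence signal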
BJ [12] = assay: cells; format: functional, cell-based; conditions: Homo sapiens
[13] = inhibitors of SNCA 5'UTR-driven reporter translation, confirmation, H4 neuroglioma cells, luminescence (AID 1988); format: functional, cell-based
BJ [14] = assay: cytotoxicity toward BJ-TERT fibroblasts, dose response, cell-based, RAS-independent, luminescence (AID 1933); format: functional; conditions: Homo sapiens
BJ [15] = assay: cytotoxicity toward BJ-TERT-LT-ST fibroblasts, dose response, cell-based, RAS-independent, luminescence (AID 1935); format: functional; conditions: Homo sapiens;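 note: BJ fibroblasts immortalized with TERT plus LT and ST oncogenes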
[16] = cytotoxicity toward DRD oncogenic fibroblasts, dose response, cell-based, non-viral oncogenic, luminescence (AID 1934); format: functional; conditions: Homo sapiens
[17] = Luminescence Cell-Based Dose Response HTS to Identify Inhibitors of 5'UTR Stem-Loop Driven Prion Protein mRNA Translation in H4 Neuroglioblastoma Cells. [Related pubchem assays: 1827 (Project Summary), 1813 (Primary HTS)]; format: functional
[18] = cytotoxicity in HEK-293T cells, dose response, cytotoxicity control for TCR NF-kB inhibitor project, luminescence, T-cell screen hits (AID 489026); format: functional, cell-based;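 note: cells exposed to compound about 14 hours before the viability readout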
[19] = inhibitors of firefly luciferase expression or activity, dose response, H4 neuroglioma cells, luminescence (AID 1990); format: functional, cell-based

Glucose-6-phosphate 1-dehydrogenase, sequence (P11413 whole entry): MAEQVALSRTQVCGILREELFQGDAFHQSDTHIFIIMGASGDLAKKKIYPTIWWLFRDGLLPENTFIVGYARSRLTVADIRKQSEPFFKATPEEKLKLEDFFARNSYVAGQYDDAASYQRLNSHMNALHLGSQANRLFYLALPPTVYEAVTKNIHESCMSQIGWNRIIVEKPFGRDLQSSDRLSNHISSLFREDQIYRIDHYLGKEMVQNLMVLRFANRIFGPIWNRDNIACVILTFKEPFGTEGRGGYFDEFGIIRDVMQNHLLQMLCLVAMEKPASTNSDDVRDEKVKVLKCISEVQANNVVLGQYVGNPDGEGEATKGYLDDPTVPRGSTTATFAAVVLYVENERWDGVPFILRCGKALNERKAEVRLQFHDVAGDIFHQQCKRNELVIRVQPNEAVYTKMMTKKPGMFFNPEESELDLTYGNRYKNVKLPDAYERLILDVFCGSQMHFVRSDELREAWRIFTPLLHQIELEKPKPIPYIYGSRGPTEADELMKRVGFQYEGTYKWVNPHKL
Large T antigen, sequence (P03070 whole entry): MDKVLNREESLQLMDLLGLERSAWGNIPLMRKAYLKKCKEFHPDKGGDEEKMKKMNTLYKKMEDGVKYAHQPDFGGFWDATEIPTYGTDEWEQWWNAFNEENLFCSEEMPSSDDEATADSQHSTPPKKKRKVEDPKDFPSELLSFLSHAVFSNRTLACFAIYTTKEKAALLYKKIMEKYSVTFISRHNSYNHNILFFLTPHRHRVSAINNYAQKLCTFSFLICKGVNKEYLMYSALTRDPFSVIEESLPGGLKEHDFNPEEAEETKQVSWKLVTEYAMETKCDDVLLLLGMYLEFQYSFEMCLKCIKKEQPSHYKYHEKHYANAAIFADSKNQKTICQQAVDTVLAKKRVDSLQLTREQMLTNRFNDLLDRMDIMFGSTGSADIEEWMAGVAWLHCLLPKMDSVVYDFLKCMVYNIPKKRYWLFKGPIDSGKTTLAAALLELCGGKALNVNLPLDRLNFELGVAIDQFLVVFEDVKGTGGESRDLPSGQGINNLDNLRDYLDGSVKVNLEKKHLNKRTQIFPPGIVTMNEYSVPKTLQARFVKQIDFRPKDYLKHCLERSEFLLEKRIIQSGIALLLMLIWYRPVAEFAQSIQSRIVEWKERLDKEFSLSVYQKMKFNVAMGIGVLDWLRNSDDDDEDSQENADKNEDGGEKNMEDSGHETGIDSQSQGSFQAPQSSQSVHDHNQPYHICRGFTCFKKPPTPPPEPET

With COc1ccc(N=C2C(=S)N(c3ccc(OC)cc3)C(=NS(=O)(=O)c3ccccc3)N2c2ccccc2)cc1 the IC50 [1] was > 80 µM (inactive).

For O=C(c1cnccn1)N1CC(=O)N2[C@@H](CO)[C@@H](c3ccc(C#CCc4ccccc4)cc3)[C@@H]2C1, the AC50 [2] was 15.7 µM (active).

With COc1ccc(/N=c2\scc(-c3ccc(OC)cc3)n2CCO)cc1 the IC50 [3] was > 100 µM (active) and the CC50 [4] was 28.5 µM (active).

For Cc1ccc2c(c1C)NC(=O)C2(O)CC(=O)c1ccc2c(c1)OCO2 (configuration not stated), the IC50 [3] was > 100 µM (active).

With O=C1COc2ccc(N3C(=O)C=CC3=O)cc2N1 the EC50 [5] was 9.09 µM (active), the IC50 (Large T antigen) was > 100 µM (active) and the EC50 [6] was 6.68 µM (active).

In the case of COc1ccc(-c2[nH]c(-c3ccc(C)cc3)nc2SCC(=O)NCc2ccco2)cc1OC, the IC50 [3] is reported as > 100 µM (active).

For O=C(Nc1nnc(S(=O)(=O)N2CCOCC2)s1)c1ccc(F)cc1, the IC50 [1] was > 80 µM (inactive).

For O=C(CSc1nnnn1-c1ccc2c(c1)CCC2)Nc1ccc2c(c1)OCCO2, the CC50 [4] was > 40 µM (active).

For CC(C)Oc1ccc(Nc2ncnc3ccccc23)cc1, the AC50 [7] was 16.3 µM (active).

In the case of O=S(=O)(c1ccc(Cl)cc1)N1CCC(n2cnc3cc(C(F)(F)F)ccc32)CC1, the EC50 [8] is reported as > 60 µM (not active), the CC50 [9] is reported as > 40 µM (active) and the AC50 [10] is reported as 0.552 µM (active). For the same molecule, the EC50 [11] was 2.04 µM (active).

With O=C1c2ccccc2C(Nc2ccc(F)c(Cl)c2)N1c1ccccn1 (configuration not stated) the IC50 [3] was > 100 µM (active).

For CCCc1ccc(C2=Nn3c(nnc3C(C)C)SC2)cc1, the CC50 [9] was > 40 µM (active).

With O=C(c1cc(-c2ccncc2)nc2c(Cl)cccc12)N1CCN(c2ccccc2F)CC1 the EC50 (BJ [12]) was 18.9 µM (active), the EC50 [13] was 3.67 µM (active) and the EC50 (BJ [14]) was 8.6 µM (inconclusive). For the same molecule, the EC50 (BJ [15]) was 4.08 µM (active), the EC50 [16] was 12.8 µM (inconclusive) and the EC50 [17] was > 120 µM (not active). The IC50 [18] was > 80 µM (inactive) and the EC50 [19] was 7.93 µM (inconclusive).

With O=S(=O)(c1ccccc1)N1CC[C@@H]2[C@H](CO)Nc3ccc(C#CC4CCCCC4)cc3[C@@H]21 the AC50 [2] was 6.42 µM (active).
